Article PMC12598616, “Design and optimization of caspase-1-responsive fluorescent probes for pyroptosis imaging and anti-pyroptosis drug screening” (Chemical Science, 2025)

Tested on: Cas-1 in NP cell spheroids
Assay: Imaging in nucleus pulposus 3D cell spheroids
Format: cell-based, rat
Conditions: H2O2 2 mM 30, 60, 90 min; FPy1 5 μM; compared with 2D cells
Excerpt: With advancing age, the prevalence of degenerative bone and joint disorders (DBJDs), such as intervertebral disc degeneration (IVDD) and osteoarthritis (OA), increases markedly among middle-aged and elderly individuals.[30] Chronic inflammation has been identified as the underlying cause of DBJDs. In particular, inflammasome-mediated pyroptosis has been recognized as a primary contributor to sustained inflammatory responses.[31] Consequently, pyroptosis-associated biomarkers represent promising indicators for the diagnosis and monitoring of DBJDs. IVDD, a chronic degenerative condition closely related to natural aging, has become one of the leading causes of disability worldwide.[32] […] The imaging results indicated a positive correlation between fluorescence intensity and H2O2-stimulation time (Fig. 4b). […] Encouraged by the promising imaging results of FPy1 in NP cells and cell spheroids, we further assessed its capability for imaging pytoptosis in vivo. […] Following intradiscal injection of FPy1, the fluorescence images of the tail modeling site were obtained from the dorsal aspect. […] Histological scoring result corroborated these findings, reflecting the same trends as with fluorescence imaging observed using FPy1 (Fig. S13b). […]
The cytotoxicity of FPy1 and YPy1 to THP-1 was evaluated by cell counting kit-8 (CCK-8). […]

–FLTDG– [FPy1, RhoB donor, hNR quencher]
fluorescence enhancement in NP spheroids: the fluorescence enhancement in the spheroids was more pronounced
